For this data set the following is noted: a range is the spread between reports.

Among the data in a melting point compilation (Tetko et al.) are melting point values, retold here.

As a reminder, the melting point is the temperature, or range, at which the solid turns liquid. `Cc1cccc(Cl)c1` came in with a melting point of -48 to -47.8 °C. On to `CCN=c1nc(Cl)[nH]c(=NC(C)C)[nH]1`, for which the melting point was 172 to 177 °C. Then `Oc1ccccc1Cl`, with 7 to 9.8 °C.

Molecule `Cc1ccc2c(c1[N+](=O)[O-])C(=O)c1ccccc1C2=O` gave a melting point of 268 to 270 °C.

`C=CCCCCCCCCCCCCCCC`: the melting point was 11 to 11.5 °C. Molecule `O=[N+]([O-])c1ccccc1F` yielded a melting point of -8 to -6 °C. `Nc1cccc(CO)c1` gave a melting point of 93 to 95 °C.

As to `c1ccc2c(c1)-c1cccc3c1c-2cc1ccccc13`, the melting point lay in the range of 164 to 168 °C. As for `c1ccc2ocnc2c1`, the melting point fell in the range of 30 to 31 °C. `O=C1CCCCCCCCCCCCCCO1` showed a melting point of 32 to 35 °C. Regarding `O=C(O)c1ccc2c(c1)OCO2`, the melting point lay within 229 to 233 °C.

On to `FC(F)(F)c1ccccc1`, for which the melting point was -29.1 to -27 °C. `O=C1CCC(N2C(=O)c3ccccc3C2=O)C(=O)N1` (centres undefined): the melting point was in the range of 270 to 275 °C.

In turn, `Nc1c(Br)cc([N+](=O)[O-])cc1[N+](=O)[O-]` returned a melting point of 152 to 154 °C. Then `O=C1C(F)=C(F)C(=O)C(F)=C1F`, with 179 to 184 °C.

In turn, `O=NN1CN2CN(C1)CN(N=O)C2` had a melting point of 204 to 207 °C. As to `C#CCCC(C)C`, the melting point is -125 to -124 °C. In turn, `O=C(O)CCCc1ccccc1` returned a melting point of 48 to 52 °C. On to `O=[N+]([O-])c1ccc(F)cc1F`, for which the melting point lay within 9 to 10 °C. For `Cc1ccco1`, the melting point is -89 to -87.5 °C. `O=Cc1ccc(I)cc1`: the melting point was 77 to 78 °C. With `O=P(O)(Oc1ccccc1)Oc1ccccc1`, the melting point lay within 66 to 67.5 °C.

With `CC(C)=CCN1CCC2(C)c3cc(O)ccc3CC1C2C` (centres undefined), the melting point was found to be 146 °C.

For the molecule `Cc1ccnc(-c2cc(C)ccn2)c1`, the melting point is 174 to 175 °C. In the case of `C=C(C)c1ccc(C(=C)C)cc1`, the melting point lay within 63.5 to 66 °C. For `CCCCCCCCP(=O)(CCCCCCCC)CCCCCCCC`, the melting point lay in the range of 52 to 55 °C. The molecule `Nc1cccc2cccnc12` yielded a melting point of 65 to 70 °C. Then `O=C(Cl)c1ccc2ccccc2c1`, with 50 to 51 °C; and `Oc1ccc(Oc2ccccc2)cc1`, with 80 to 84 °C; and `O=C(O)CC[N+](=O)[O-]`, with 62 to 64 °C. Then `FC(F)(F)C(F)(F)C(F)(F)C(F)(F)C(F)(F)C(F)(F)C(F)(F)C(F)(F)F`, with -25 to -23.2 °C; and `O=C(O)c1cc(F)c(F)cc1F`, with 98 to 100 °C. Turning to `C=C1C2CCC(C2)C1(C)C` (centres undefined), the melting point was 50 to 52 °C.

In turn, `Oc1ccccc1I` came in with a melting point of 38.5 to 43 °C. `Clc1ccc(I)cc1` returned a melting point of 54 to 57 °C. The molecule `c1csc(-c2cccs2)c1` gave a melting point of 32 to 33 °C. Take `Cc1c[nH]c2ccccc12`: the melting point amounted to 95 °C.

`C1CCC1` returned a melting point of -91 to -90.6 °C. For `CCC(C(C)C)C(C)C`, the melting point is -122 °C. As to `CC(=O)c1ccc(O)cc1O`, the melting point was 144 to 146 °C. The molecule `O=C=Nc1cccc(N=C=O)c1` had a melting point of 48 to 50 °C. With `CCCCCCCCOC(=O)c1cc(O)c(O)c(O)c1`, the melting point was in the range of 99 to 102 °C. Turning to `CC(C)CCOC=O`, the melting point is -93.5 to -93 °C.

In turn, `Cc1cccnc1N` showed a melting point of 31 to 33.5 °C.

In turn, `Cc1cc2ccccc2cn1` came in with a melting point of 63 to 68 °C.

`CCCCN` came in with a melting point of -50 to -49 °C. On to `O=C(O)C(=Cc1ccccc1)c1ccccc1`, for which the melting point was 171 to 172 °C. `CCC(S)CC` yielded a melting point of -111 °C. `CCOC(=O)C(=O)OCC` displayed a melting point of -41 to -40 °C.

`COc1c(Cl)cc(Cl)cc1Cl` displayed a melting point of 61 to 61.5 °C.

`N#CCc1ccc(I)cc1` came in with a melting point of 48 to 53 °C.

In turn, `O=c1c(-c2ccc(O)cc2)coc2cc(O)cc(O)c12` gave a melting point of 300 to 302 °C. In turn, `CS(=O)(=O)OCCCCOS(C)(=O)=O` showed a melting point of 116 °C.

Turning to `O=C(O)c1cc2ccccc2o1`, the melting point lay within 192 to 194 °C. With `NNc1cc(Cl)ccc1Cl`, the melting point was in the range of 102 to 104 °C. The molecule `CC(=O)c1cccnc1` gave a melting point of 12 to 13.5 °C.

As to `O=C(O)CCCCCc1ccccc1`, the melting point was 18 to 23 °C.

Regarding `CC(=O)NN`, the melting point lay in the range of 64 to 67 °C. Turning to `Cc1n[nH]c(=S)[nH]c1=O`, the melting point fell in the range of 218 to 220 °C. `O=C(O)COc1ccc(Cl)cc1Cl` came in with a melting point of 138 to 140 °C. The value for `CCCCCCOCCO` was -45.1 to -42 °C; that for `COc1ccc(C(=O)O)c(OC)c1OC` was 100 to 101 °C. For `CN(C=O)c1ccccc1`, the melting point was in the range of 11 to 14.5 °C.

`CC(C)(C)c1ccc2oc(-c3ccc(-c4nc5cc(C(C)(C)C)ccc5o4)s3)nc2c1` registered a melting point of 199 to 201 °C. `CCOC(=O)c1ccc(OC)c(OC)c1` registered a melting point of 43.5 to 44 °C. Take `COc1cc(CNC(=O)CCCCC=CC(C)C)ccc1O`: the melting point fell in the range of 65 to 66 °C. The value for `O=Cc1ccc[nH]1` was 43 to 46.5 °C; that for `Cc1c(O)cccc1O` was 118 to 120 °C.

As for `Cc1ccnc(C)c1`, the melting point is -64 to -60 °C. The molecule `CCCCCl` yielded a melting point of -123 °C. Regarding `O=C1OCc2c(Cl)c(Cl)c(Cl)c(Cl)c21`, the melting point is 208 to 210 °C. In turn, `CC(C)=CC=C(C)C` came in with a melting point of 12 to 13 °C.

Regarding `N#Cc1cccc(C=O)c1`, the melting point lay within 76.5 to 77 °C. Turning to `CC#CCO`, the melting point was -2.2 to -2 °C. The value for `CC(C)=CC(=O)O` was 67 to 69.5 °C. For `CCOS(=O)(=O)c1ccc(C)cc1`, the melting point is 32 to 34.5 °C. Regarding `CC(=O)C(=O)O`, the melting point fell in the range of 11 to 13.8 °C.

`OCCCCCCCO` yielded a melting point of 18 to 22.5 °C.

In turn, `CC#CC` showed a melting point of -32.3 to -32 °C.

`CC(C)CC(=O)O` returned a melting point of -33 to -29.3 °C.

Consider `C1=CCC=CC1`, for which the melting point is -49.2 to -49 °C. Take `c1cnc2c(c1)ccc1cccnc12`: the melting point lay within 117 to 118 °C. Then `COC(=O)c1cc2ccccc2cc1O`, with 73 to 75.5 °C; and `CC1CNC(C)CN1` (centres undefined), with 114 to 118 °C; and `O=C(O)CCSCCC(=O)O`, with 129 to 131 °C.

`Clc1ccc2cc[nH]c2c1` gave a melting point of 89 to 90 °C. `CCOc1ccc2ccccc2c1` displayed a melting point of 36 to 37.5 °C. Turning to `O=Cc1ccc(O)c([N+](=O)[O-])c1`, the melting point is 141 to 142 °C.

Regarding `O=C1CN(N=Cc2ccc([N+](=O)[O-])o2)C(=O)N1`, the melting point is 263 to 268 °C.

`C=CCCl` had a melting point of -135 to -134 °C. `c1ccc(CSSCc2ccccc2)cc1`: the melting point was in the range of 70 to 71.5 °C. `COC=O` showed a melting point of -100 to -99 °C. As for `CC(=O)NS(=O)(=O)c1ccc(N)cc1`, the melting point lay within 182 to 183 °C.

As for `CCC(C)(C)C(C)C`, the melting point was -101 °C. Consider `CN(C)c1ccc(Cc2ccc(N(C)C)cc2)cc1`, for which the melting point was 87 to 91.5 °C. Then `ClCC(Cl)Cl`, with -37 to -35 °C. Consider `Oc1ccc(Cl)cc1Cc1ccccc1`, for which the melting point lay within 48 to 48.5 °C. With `Oc1ccnc2ccccc12`, the melting point was 201 to 203 °C. Molecule `Cc1ccc([N+](=O)[O-])cc1` gave a melting point of 51 to 54 °C. The molecule `Cc1ccc2[nH]cnc2c1` showed a melting point of 112 to 116 °C. Molecule `N#Cc1ccccc1O` yielded a melting point of 93.5 to 98 °C. With `CCc1ccccc1`, the melting point is -95 to -94.9 °C. In turn, `N#CCCCCC#N` registered a melting point of 1 to 2 °C. Regarding `N#Cc1c(Cl)cccc1Cl`, the melting point was in the range of 143 to 145 °C. As to `CCCCCc1cc(O)c2c(c1)OC(C)(C)c1ccc(C)cc1-2`, the melting point fell in the range of 76.5 to 77 °C. `Brc1ccccc1I` gave a melting point of 9.5 to 10 °C. The value for `O=C1C=CC(=O)N1` was 92 to 94 °C. `CCOC(=O)c1c[nH]nc1N` displayed a melting point of 103 to 106 °C.

Take `C=CCCCCCCCCCCCC`: the melting point is -13 to -12 °C.

In the case of `CCC1CCCCC1`, the melting point was -111 °C. In the case of `Cc1ccc(N)c(N)c1`, the melting point lay within 88 to 89.5 °C. For the molecule `COc1ccc2cc(OC)ccc2c1`, the melting point lay in the range of 150 to 153 °C. As for `O=C(O)c1ccc(O)cc1O`, the melting point is 225 to 226 °C.

Molecule `COc1cc(C)ccc1O` came in with a melting point of 5.5 to 6 °C. Turning to `N#Cc1cccc(C(F)(F)F)c1`, the melting point lay within 14.5 to 16 °C.

In turn, `C[C@H]1CC[C@@H](O)CC1` registered a melting point of -10 to -9.2 °C. As for `c1cnccn1`, the melting point is 53 to 55 °C. Then `c1ccc2nc(-c3ccc4ccccc4n3)ccc2c1`, with 194 to 195 °C. In turn, `CC(C)(C)c1cc(O)c(C(C)(C)C)cc1O` registered a melting point of 216 to 218 °C. As for `COc1ccc(C(=O)c2ccccc2)c(O)c1`, the melting point lay within 64 to 65.5 °C. Take `OCC(O)C(O)CO` (centres undefined): the melting point was 122 °C. The molecule `NC(=O)c1c(F)c(F)c(F)c(F)c1F` displayed a melting point of 147 to 148 °C. On to `c1ccc2n[nH]nc2c1`, for which the melting point was determined as 97 °C.

Turning to `COC(=O)c1cccc(I)c1`, the melting point lay in the range of 54 to 54.5 °C. Then `Nc1ccc(S(=O)(=O)c2ccc(N)cc2)cc1`, with 176 to 177 °C. For `CCCC(N)=O`, the melting point fell in the range of 115 to 116 °C.

In turn, `CCOC(=O)c1ccc(O)cc1` showed a melting point of 116 to 117 °C. The molecule `CC=C(C)C` displayed a melting point of -134 °C. In the case of `O=C(O)CSCc1ccccc1`, the melting point fell in the range of 61 to 62 °C. `CC(=O)OO` yielded a melting point of -0.2 to 0.1 °C. In the case of `O=C(O)C(S)C(S)C(=O)O` (centres undefined), the melting point was 193 to 197 °C.

In the case of `CC(C)(C)C#N`, the melting point fell in the range of 15 to 17 °C.

As to `CCO[Si](OCC)(OCC)OCC`, the melting point is -86 to -82.5 °C.

`COc1cccc(Cl)c1Cl` returned a melting point of 31 to 32 °C.

`O=[N+]([O-])c1cccc(Cl)c1` came in with a melting point of 43 to 46 °C. Molecule `O=C(Cc1ccccc1)c1ccccc1` gave a melting point of 55 to 60 °C. Then `CC(=O)c1cc(C)ccc1O`, with 47 to 50 °C; and `Cc1cccc(C)c1C`, with -25.4 to -25 °C; and `N#CN`, with 44 to 45.6 °C.
